# pIC50: −log10 of the molar value. The source made the active and inactive calls. Rule as the data show it: active = IC50 below about 9 µM; inactive = the rest.
# Target: Tyrosine-protein kinase JAK2 (Homo sapiens) (UniProt O60674)
# Test: JAK2V617F project follow-up: kinase, reporter, cytotoxicity – HEL and Ba/F3 cells, late-stage follow-up (AID 2165)
# Conditions: JAK2V617F panel: kinase, IRF1 reporter
# Chain of Tyrosine-protein kinase JAK2 (Homo sapiens) (O60674 whole entry, looked up, change not shown): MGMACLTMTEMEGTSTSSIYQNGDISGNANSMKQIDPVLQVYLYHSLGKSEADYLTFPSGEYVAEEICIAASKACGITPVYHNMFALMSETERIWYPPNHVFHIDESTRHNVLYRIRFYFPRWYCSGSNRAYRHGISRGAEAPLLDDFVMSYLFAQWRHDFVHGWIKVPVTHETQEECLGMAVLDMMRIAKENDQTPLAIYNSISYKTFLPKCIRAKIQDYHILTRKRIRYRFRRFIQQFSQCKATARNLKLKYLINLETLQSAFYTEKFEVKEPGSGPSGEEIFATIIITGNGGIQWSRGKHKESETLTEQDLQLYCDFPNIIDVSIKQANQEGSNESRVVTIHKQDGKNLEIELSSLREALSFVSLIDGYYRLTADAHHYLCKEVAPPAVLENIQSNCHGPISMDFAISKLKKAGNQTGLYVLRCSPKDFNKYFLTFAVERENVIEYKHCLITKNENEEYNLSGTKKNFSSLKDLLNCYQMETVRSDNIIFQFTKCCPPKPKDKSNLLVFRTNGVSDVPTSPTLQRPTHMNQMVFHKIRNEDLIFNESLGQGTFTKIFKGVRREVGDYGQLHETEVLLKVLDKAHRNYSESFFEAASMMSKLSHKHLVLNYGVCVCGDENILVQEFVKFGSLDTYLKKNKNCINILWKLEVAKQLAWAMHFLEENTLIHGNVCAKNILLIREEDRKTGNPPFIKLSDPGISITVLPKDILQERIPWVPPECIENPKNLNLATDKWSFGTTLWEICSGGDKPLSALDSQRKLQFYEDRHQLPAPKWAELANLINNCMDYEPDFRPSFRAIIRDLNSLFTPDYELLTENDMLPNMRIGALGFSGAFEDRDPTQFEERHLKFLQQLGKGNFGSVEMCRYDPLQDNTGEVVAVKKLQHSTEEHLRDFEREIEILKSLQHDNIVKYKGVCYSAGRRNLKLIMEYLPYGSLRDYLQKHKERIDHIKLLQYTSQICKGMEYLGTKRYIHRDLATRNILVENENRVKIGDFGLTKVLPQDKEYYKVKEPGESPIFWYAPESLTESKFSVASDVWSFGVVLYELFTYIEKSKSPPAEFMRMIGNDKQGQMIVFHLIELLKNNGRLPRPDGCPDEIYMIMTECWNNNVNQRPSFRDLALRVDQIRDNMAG
Compound,"pIC50 (Ba/F3, irf1 reporter)","pIC50 (HEL, irf1 reporter)",IC50 (JAK2V617F),pIC50 (JAK2V617F),"IC50 (HEL, irf1 reporter)","IC50 (Ba/F3, irf1 reporter)"
O=c1oc2ccc(Cl)cc2nc1/C=C(\O)c1ccco1,5.26,5.32,–,–,–,–
Cc1cc(C)cc(NC(=O)COc2cccc(C)c2)c1,–,–,> 40 µM (inactive),–,–,–
Cc1[nH]c(=O)c(C(=O)C=Cc2ccc(C(C)C)cc2)c2c1CCCC2,6.08,5.20,–,5.64,–,–
CCCCn1c(=N)n(CC(=O)c2ccc(Br)s2)c2ccccc21,5.44,5.01,–,–,–,–
COc1cc2ncnc(Sc3ccc(C)cc3)c2cc1OC,–,5.34,> 40 µM (inactive),–,–,–
CN(c1ccccc1)S(=O)(=O)c1cccc(C(=O)NCCc2ccc(O)c(O)c2)c1,5.52,5.53,–,–,–,–
O=C(CCl)N=c1sccn1Cc1ccc(Cl)cc1Cl,5.22,5.65,–,–,–,–
Cc1[nH]c(=O)c(C(=O)C=Cc2ccc(Br)cc2)c2c1CCCC2,6.01,5.99,–,5.44,–,–
CC(C)C1C(C#N)=C(N)Oc2n[nH]c(-c3ccc4ccccc4c3)c21 (centres undefined),5.33,4.79,–,–,–,–
c1ccc2c(c1)CSc1sccc1C2=C1CCNCC1,5.23,–,–,–,> 40 µM (inactive),–
O=C(CCl)NC(=O)NC12CC3CC(CC(C3)C1)C2,5.45,5.10,–,–,–,–
COc1ccccc1-c1nnc(Sc2nc([N+](=O)[O-])nn2C)o1,4.45,4.87,–,–,–,–
Cc1ccccc1CS(=O)(=O)c1nnc([C@H](CC(C)C)NC(=O)OC(C)(C)C)o1,5.71,4.92,–,–,–,–
COc1cc(C=C(C#N)C(N)=O)cc(CSc2ccccc2)c1O,–,–,> 40 µM (inactive),–,> 40 µM (inactive),> 40 µM (inactive)
Clc1cccc(Nc2ncnc3ccccc23)c1,–,–,> 40 µM (inactive),–,> 40 µM (inactive),–
c1ccc(CCNc2nc(-c3ccccn3)nc3ccccc23)cc1,5.26,5.54,–,–,–,–
Oc1ccc(/C=N/N2CCN(C3c4ccccc4-c4ccccc43)CC2)cc1O,5.61,5.29,–,–,–,–
Cc1cccc(Nc2nc(N)nc(CCl)n2)c1C,4.83,5.93,–,–,–,–
COc1cc(/C=C(\C#N)C(N)=O)cc(CSc2nc3ccccc3s2)c1O,5.47,5.38,–,5.17,–,–
CC1CCCC(NC(=O)NC(=O)CCl)C1C (centres undefined),5.50,4.51,–,–,–,–
COc1ccc(Cl)cc1NC(=O)NC(C)c1ccncc1 (centres undefined),–,–,> 40 µM (inactive),–,> 40 µM (inactive),–
COc1cc2ncnc(Nc3cccc(Cl)c3)c2cc1OC,–,–,> 40 µM (inactive),–,> 40 µM (inactive),–

Compound,"pIC50 (Ba/F3, irf1 reporter)","pIC50 (HEL, irf1 reporter)",IC50 (JAK2V617F),pIC50 (JAK2V617F),"IC50 (HEL, irf1 reporter)","IC50 (Ba/F3, irf1 reporter)"
Cc1ccc(O)c(NC(=O)COc2ccc(C3CCCCC3)cc2)c1,–,–,> 40 µM (inactive),–,–,–
Cc1[nH]c2ccccc2c(=O)c1C(=O)/C=C/c1ccccc1,–,5.40,–,–,–,> 40 µM (inactive)
COc1ccc(-c2cc(-c3cc(C)ccc3O)[nH]n2)cc1,5.15,5.74,–,–,–,–
Cc1cccc(OCC(=O)Nc2cc(C)c(C)cc2O)c1,–,–,> 40 µM (inactive),–,–,–
COc1cc2ncnc(Nc3ccc(O)c(Br)c3)c2cc1OC,5.66,5.53,–,4.52,–,–
Cc1cccc(OCC(=O)Nc2cccc(C)c2C)c1,–,–,> 40 µM (inactive),–,–,–
Cc1ccc(NC(=O)C(=Cc2ccc(C(=O)O)cc2)C(=O)Nc2ccc(C)cc2C)c(C)c1,5.54,5.55,–,–,–,–
COc1cc2ncnc(Nc3ccc(F)c(F)c3)c2cc1OC,–,–,> 40 µM (inactive),–,> 40 µM (inactive),–
Nc1nc(N)c2nc(-c3ccccc3)c(N)nc2n1,–,–,–,–,> 40 µM (inactive),> 40 µM (inactive)
Cc1ccccc1CS(=O)(=O)c1nnc([C@H](Cc2ccccc2)NC(=O)OC(C)(C)C)o1,5.81,4.87,–,–,–,–
COC1(OC)C(/C=C/c2ccc(Cl)cc2)C(C#N)(C#N)C1(OC)OC (centres undefined),5.88,5.18,–,–,–,–
Cc1[nH]c(=O)c(C(=O)C=Cc2cccc(Br)c2)c2c1CCCC2,6.23,5.95,–,6.26,–,–
COc1cccc(F)c1C(C[N+](=O)[O-])c1c(N)n(C)c(=O)n(C)c1=O (centres undefined),5.24,5.03,–,–,–,–
O=C(NCCc1cccnc1)C1CCC(=O)N(CCc2cccc(F)c2)C1 (centres undefined),–,–,> 40 µM (inactive),–,> 40 µM (inactive),–
COc1ccc(OCC(=O)Nc2cc(C)ccc2O)cc1,–,–,–,5.47,–,–
Cc1cccc(N(Cc2ccccc2)C(=O)CCl)c1,5.95,5.32,–,–,–,–
O=C(CCl)NCc1cc(-c2ccc(Cl)cc2)no1,5.26,5.11,–,–,–,–
COc1ccc(C)cc1NC(=O)Nc1ccc(Br)cn1,–,–,> 40 µM (inactive),–,> 40 µM (inactive),–
Cc1nc([N+](=O)[O-])c(Br)n1CC(=O)c1ccc2ccccc2c1,5.29,4.68,–,–,–,–
Cc1nn(Cc2ccc(Cl)cc2Cl)c(C)c1NC(=O)CCl,5.06,5.07,–,–,–,–
COCCOc1cc2ncnc(Nc3cccc(C#Cc4ccc(O)cc4)c3)c2cc1OCCOC,–,7.02,–,5.56,–,–
CCC(C)c1ccc(OCC(=O)Nc2cc(C)ccc2O)cc1 (centres undefined),–,–,–,4.48,–,–

Compound,"pIC50 (Ba/F3, irf1 reporter)","pIC50 (HEL, irf1 reporter)",IC50 (JAK2V617F),pIC50 (JAK2V617F),"IC50 (HEL, irf1 reporter)","IC50 (Ba/F3, irf1 reporter)"
COc1ccc([N+](=O)[O-])c(S(=O)(=O)c2ccc(Cl)cc2)n1,6.40,4.98,–,–,–,–
Oc1ccccc1OCCOc1ccccc1OCCOc1ccccc1O,5.17,4.80,–,–,–,–
COc1ccccc1OCC(=O)Nc1cc(C)ccc1O,–,–,–,7.41,–,–
COc1cc2c(cc1OC)-c1cc(N3CCCc4ccccc43)nc(=O)n1CC2,–,–,–,–,> 40 µM (inactive),> 40 µM (inactive)
CCN1C/C(=C/c2ccc(OC)c(O)c2)C(=O)/C(=C/c2ccc(OC)c(O)c2)C1,5.63,5.56,–,–,–,–
Cc1ccc(O)c(NC(=O)COc2ccc(Br)cc2)c1,–,–,–,7.48,–,–
CCC(C)[C@@H](NC(=O)OC(C)(C)C)c1nnc(S(=O)(=O)Cc2cccc(C)c2)o1 (some centres undefined),6.62,4.66,–,–,–,–
COc1cc2ncnc(Nc3ccc(OC(F)(F)F)cc3)c2cc1OC,–,5.42,> 40 µM (inactive),–,–,–
Cc1cc2ncc(-c3ccc(O)c(O)c3)nc2cc1C,6.98,5.50,–,6.08,–,–
CCN(CC)S(=O)(=O)c1cccc(-n2c(O)c(C=Nc3ccccc3C(=O)O)c3ccccc3c2=O)c1,–,–,–,–,> 40 µM (inactive),> 40 µM (inactive)
Cc1ccc(O)c(NC(=O)COc2ccc(F)cc2)c1,–,–,–,4.66,–,–
Nc1nc(CCl)nc(N(c2ccccc2)c2ccccc2)n1,4.85,5.58,–,–,–,–
COc1cc2ncnc(Sc3ccc(Cl)cc3)c2cc1OC,–,–,> 40 µM (inactive),–,> 40 µM (inactive),–
COc1ccc(Nc2nc(N)nc(CCl)n2)cc1,–,5.40,–,–,–,> 40 µM (inactive)
O=C(CSc1nnnn1-c1ccc(F)cc1)c1ccc(O)c(O)c1,4.91,4.78,–,–,–,–
Cc1cccc(OCC(=O)Nc2ccc(O)cc2)c1,–,–,> 40 µM (inactive),–,–,–
CC(C)[C@@H](CO)Nc1nc(Nc2cccc(Cl)c2)c2ncn(C(C)C)c2n1,6.08,5.95,–,6.04,–,–
COc1cc2ncnc(Nc3cccc(C)c3)c2cc1OC,–,5.14,> 40 µM (inactive),–,–,–
Cc1[nH]c(=O)c(C(=O)C=Cc2ccc(Cl)cc2Cl)c2c1CCCC2,6.28,5.59,–,5.84,–,–
Cc1cccc(OCC(=O)Nc2cc(C)ccc2O)c1,5.41,–,–,–,> 40 µM (inactive),–
Cc1ccc(O)c(NC(=O)COc2cccc3ccccc23)c1,–,–,–,5.63,–,–
O=C(C=C=Nc1ccccc1)C(=O)N=C=Cc1ccccc1,5.88,4.85,–,–,–,–

Compound,"pIC50 (Ba/F3, irf1 reporter)","pIC50 (HEL, irf1 reporter)",IC50 (JAK2V617F),pIC50 (JAK2V617F),"IC50 (HEL, irf1 reporter)","IC50 (Ba/F3, irf1 reporter)"
Cc1ccc(C)c(Sc2ccc(NC(=O)CCl)cc2)c1,5.66,4.74,–,–,–,–
O=C1C=CCC(/C=C/c2ccccc2)O1 (centres undefined),5.13,5.69,–,–,–,–
Cc1cc(SCC(=O)N/N=C/c2ccc(O)c(O)c2)c(C)cc1Br,5.70,–,–,–,> 40 µM (inactive),–
Cc1ccc(O)c(NC(=O)COc2cc(C)ccc2C)c1,–,–,–,5.65,–,–
N#C/C(=C\c1ccc(O)c(O)c1)C(=O)NCCc1ccccc1,6.70,5.29,–,6.10,–,–
O=C(Oc1cccc2c(O)cccc12)c1ccccc1,5.09,–,–,–,> 40 µM (inactive),–
Cc1cccc(OCC(=O)Nc2ccccc2F)c1,–,–,> 40 µM (inactive),–,> 40 µM (inactive),–
CC1CCCN(CCCNC(=O)c2cc3c(Cl)nc4ccccc4c3s2)C1 (centres undefined),4.94,–,–,–,> 40 µM (inactive),–
Cc1ccc(O)c(NC(=O)COc2ccccc2Cl)c1,–,–,–,7.61,–,–
O=C(OCn1ncc(Cl)c(Cl)c1=O)c1ccccc1Cl,5.40,5.35,–,–,–,–
Cc1[nH]c(=O)c(C(=O)C=Cc2ccc(Cl)cc2)c2c1CCCC2,5.97,6.02,–,5.58,–,–
O=C(Nc1cccc2c1[nH]c1ccccc12)C(F)(F)F,4.72,5.43,–,–,–,–
CC1CCN(CCCNC(=O)c2cc3c(Cl)nc4ccccc4c3s2)CC1,5.00,–,–,–,> 40 µM (inactive),–
c1ccc2c(CN3CCCCCC3)c[nH]c2c1,4.84,4.80,–,–,–,–
COc1cc(/C=C2\COC/C(=C\c3ccc(O)c(OC)c3)C2=O)ccc1O,5.70,5.10,–,–,–,–
CC(C)(C)OC(=O)N[C@@H](Cc1ccccc1)c1nnc(S(=O)(=O)Cc2cccc(F)c2)o1,6.04,4.58,–,–,–,–
COc1cc2ncnc(NC(C)C)c2cc1OC,–,–,> 40 µM (inactive),–,> 40 µM (inactive),–
COc1ccc(C=CC(=O)c2c3c(c(C)[nH]c2=O)CCCC3)cc1,–,–,–,5.16,> 40 µM (inactive),> 40 µM (inactive)
Cc1cc(C)c(C(=O)/C=C/c2ccccc2F)c(=O)[nH]1,4.62,5.93,–,6.15,–,–
Cc1cc2[nH]c3c(c[n+](C)c4ccccc34)c2cc1C,5.11,5.13,–,–,–,–
CCc1cccc(Nc2ncnc3cc(OCCOC)c(OCCOC)cc23)c1,–,–,> 40 µM (inactive),–,> 40 µM (inactive),–

# From PubChem BioAssay AID2165 (The Scripps Research Institute Molecular Screening Center, 2009)
